Experiments:
[1] = test system: RD cells; test: Cytotoxicity assay (CellTiter-Glo 2.0) on RD cells; format: cell-based, Human; conditions: for IC50: Homo sapiens
Procedure: (§1) Cytotoxicity assays consist in treating cells with compounds and assessing remaining viability after a defined incubation time, depending on the cell line. CellTiter-Glo® 2.0 reagent allows viability measurement by quantification of ATP present, which is an indicator of metabolically active cells.
(§2) The cancer cell lines were cultivated in their respective growth medium (see tables 6a and 6b). On day 0 of the cytotoxicity assay, the cells were harvested and seeded into a 384-well plate at a defined density in their respective growth medium (see tables 6a and 6b). Compounds to be tested were then added onto the cells and incubated for a defined duration (see tables 6a and 6b). Following incubation, CellTiter-Glo® 2.0 reagent (cat.no. G9241 from Promega) was added into the wells (vol/vol, according to the manufacturer's recommendations), plates were gently shaken and incubated for 10 minutes in the dark at room temperature. Bioluminescence was then measured with a multimode plate reader (Victor Nivo from Perkin Elmer), and cell viability and relative IC50 were determined. Table 6a: Cancer cell characteristics, culture and cytotoxic assay conditions

[2] = test system: 4T1 cells; test: Cytotoxicity assay (CellTiter-Glo 2.0) on 4T1 cells; format: cell-based, Mouse; conditions: incubation 2 days; for IC50: Mus musculus, 48 h
Procedure: as §1, §2

[3] = test system: MDA-MB-231 cells; test: Cytotoxicity assay (CellTiter-Glo 2.0) on MDA-MB-231 cells; format: cell-based, Human; conditions: incubation 3 days; for IC50: Homo sapiens, 72 h
Procedure: as §1, §2

[4] = test system: EoL-1 cells; test: Cytotoxicity assay (CellTiter-Glo 2.0) on EoL-1 cells; format: cell-based, Human; conditions: incubation 1 day; for IC50: Homo sapiens, EOL1, 24 h
Procedure: as §1, §2

[5] = test system: HUVECs; test: Tube formation assay (anti-angiogenic activity); format: cell-based, human; conditions: incubation 16 to 18 hours; for IC50: Homo sapiens, HUVEC
Source text: Angiogenesis is a phenomenon that includes different processes, such as endothelial cell proliferation, migration and differentiation that lead to the formation of new blood vessels. Tube formation assay is a standard in vitro test to assess angiogenesis: briefly, human Umbilical Vein Endothelial cells (hereafter "HUVECs") cultivated on a gelled basement matrix spontaneously proliferate, migrate and differentiate to form tube-like structures, that appear elongated and that connect to each other to form a network.
HUVECs were cultivated in Endothelial Cell Growth Medium (cat.no. C-22010 from Promocell) supplemented with 1% PenStrep (hereafter "HUVEC medium"). On day 0, HUVECs were harvested and transferred into a 384-well plate precoated with 10 µl/well of Cultrex UltiMatrix Reduced Growth factor basement membrane (cat.no. BME001-10 from BioTechne), according to the manufacturer's instructions, at a density of 5000 cells/well in HUVEC medium. Compounds to be tested were then added onto the cells and incubated for 16 to 18 hours at 37°C. After this incubation period, the cells were stained with calcein-AM (cat.no. 10462052 from Fisher Scientific) and pictures were acquired using a confocal fluorescent microscope (IXM from Molecular Devices). Tube formation was measured with MetaXpress® Software.

| Compound | Cytotoxicity ([1]; 2 day-treatment) | Cytotoxicity ([1]; 4 day-treatment) | IC50 ([1]; 48 h, 2 day-treatment) | IC50 ([1]; 96 h, 4 day-treatment) | IC50 [2] | Cytotoxicity [2] | IC50 [3] | Cytotoxicity [3] | IC50 [4] | Cytotoxicity [4] | IC50 [5] | Angiogenesis inhibition [5] |
| --- | --- | --- | --- | --- | --- | --- | --- | --- | --- | --- | --- | --- |
| CSc1cc(Oc2ccnc3c2CCC(=O)N3)ccc1NC(=O)Nc1cc(C(C)(C)C)nn1-c1ccccc1 [Compound 001, 1-(3-(tert-butyl)-1-phenyl-1H-pyrazol-5-yl)-3-(2-(methylthio)-4-((7-oxo-5,6,7,8-tetrahydro-1,8-naphthyridin-4-yl)oxy)phenyl)urea] | + (20 % ≤ cytotoxicity < 50%) | ++ (50% ≤ cytotoxicity < 85%) | 1 to 5 µM | 1 to 5 µM | 1 to 5 µM | +++ (cytotoxicity ≥ 85%) | 1 to 5 µM | ++ (50% ≤ cytotoxicity < 85%) | 0.01 to 0.1 µM | +++ (cytotoxicity ≥ 85%) | < 0.1 µM | +++ (angiogenesis inhibition ≥ 80%) |
| CSc1cc(Oc2ccnc3c2CCC(=O)N3)ccc1NC(=O)Nc1cc(C(C)(C)C)nn1-c1ccc(C)cc1 [Compound 002, 1-(3-(tert-butyl)-1-(p-tolyl)-1H-pyrazol-5-yl)-3-(2-(methylthio)-4-((7-oxo-5,6,7,8-tetrahydro-1,8-naphthyridin-4-yl)oxy)phenyl)urea] | ++ (50% ≤ cytotoxicity < 85%) | ++ (50% ≤ cytotoxicity < 85%) | 1 to 5 µM | 1 to 5 µM | 1 to 5 µM | +++ (cytotoxicity ≥ 85%) | 1 to 5 µM | ++ (50% ≤ cytotoxicity < 85%) | 0.01 to 0.1 µM | +++ (cytotoxicity ≥ 85%) | < 0.1 µM | +++ (angiogenesis inhibition ≥ 80%) |
| CSc1cc(Oc2ccnc3c2CCC(=O)N3)ccc1NC(=O)Nc1ncc(C(C)(C)C)s1 [Compound 004, 1-(5-(tert-butyl)thiazol-2-yl)-3-(2-(methylthio)-4-((7-oxo-5,6,7,8-tetrahydro-1,8-naphthyridin-4-yl)oxy)phenyl)urea] | + (20 % ≤ cytotoxicity < 50%) | ++ (50% ≤ cytotoxicity < 85%) | 1 to 5 µM | 1 to 5 µM | 1 to 5 µM | +++ (cytotoxicity ≥ 85%) | < 1 µM | ++ (50% ≤ cytotoxicity < 85%) | 0.001 to 0.01 µM | +++ (cytotoxicity ≥ 85%) | 0.1 to 0.5 µM | +++ (angiogenesis inhibition ≥ 80%) |
| CSc1cc(Oc2ccnc3c2CCC(=O)N3)ccc1NC(=O)Nc1cncc(C(F)(F)F)c1 [Compound 005, 1-(2-(methylthio)-4-((7-oxo-5,6,7,8-tetrahydro-1,8-naphthyridin-4-yl)oxy)phenyl)-3-(5-(trifluoromethyl)pyridin-3-yl)urea] | + (20 % ≤ cytotoxicity < 50%) | ++ (50% ≤ cytotoxicity < 85%) | 1 to 5 µM | 1 to 5 µM | 5 to 10 µM | ++ (50% ≤ cytotoxicity < 85%) | 1 to 5 µM | ++ (50% ≤ cytotoxicity < 85%) | < 0.001 µM | +++ (cytotoxicity ≥ 85%) | 0.1 to 0.5 µM | ++ (80% > angiogenesis inhibition ≥ 50%) |
| CC(C)(C)c1cnc(NC(=O)Nc2ccc(Oc3ccnc4c3CCC(=O)N4)c3ccccc23)s1 [Compound 007, 1-(5-(tert-butyl)thiazol-2-yl)-3-(4-((7-oxo-5,6,7,8-tetrahydro-1,8-naphthyridin-4-yl)oxy)naphthalen-1-yl)urea] | + (20 % ≤ cytotoxicity < 50%) | ++ (50% ≤ cytotoxicity < 85%) | 5 to 10 µM | 1 to 5 µM | 1 to 5 µM | +++ (cytotoxicity ≥ 85%) | 1 to 5 µM | ++ (50% ≤ cytotoxicity < 85%) | 0.01 to 0.1 µM | +++ (cytotoxicity ≥ 85%) | < 0.1 µM | +++ (angiogenesis inhibition ≥ 80%) |
| CSc1cc(Oc2ccnc3c2CCC(=O)N3)ccc1NC(=O)Nc1cc(C(C)(C)C)no1 [Compound 008, 1-(3-(tert-butyl)isoxazol-5-yl)-3-(2-(methylthio)-4-((7-oxo-5,6,7,8-tetrahydro-1,8-naphthyridin-4-yl)oxy)phenyl)urea] | ++ (50% ≤ cytotoxicity < 85%) | +++ (cytotoxicity ≥ 85%) | < 1 µM | < 1 µM | < 1 µM | +++ (cytotoxicity ≥ 85%) | < 1 µM | ++ (50% ≤ cytotoxicity < 85%) | 0.001 to 0.01 µM | +++ (cytotoxicity ≥ 85%) | < 0.1 µM | +++ (angiogenesis inhibition ≥ 80%) |
| CC(C)(C)c1cc(NC(=O)Nc2ccc(Oc3ccnc4c3CCC(=O)N4)c3ccccc23)on1 [Compound 009, 1-(3-(tert-butyl)isoxazol-5-yl)-3-(4-((7-oxo-5,6,7,8-tetrahydro-1,8-naphthyridin-4-yl)oxy)naphthalen-1-yl)urea] | ++ (50% ≤ cytotoxicity < 85%) | ++ (50% ≤ cytotoxicity < 85%) | 1 to 5 µM | 1 to 5 µM | < 1 µM | +++ (cytotoxicity ≥ 85%) | < 1 µM | ++ (50% ≤ cytotoxicity < 85%) | 0.001 to 0.01 µM | +++ (cytotoxicity ≥ 85%) | < 0.1 µM | +++ (angiogenesis inhibition ≥ 80%) |
| Cc1ccc(-n2nc(C(C)(C)C)cc2NC(=O)Nc2ccc(Oc3ccnc4c3CCC(=O)N4)cc2C(F)(F)F)cc1 [Compound 010, 1-[5-tert-butyl-2-(p-tolyl)pyrazol-3-yl]-3-[4-[(7-oxo-6,8-dihydro-5H-1,8-naphthyridin-4-yl)oxy]-2-(trifluoromethyl)phenyl]urea] | ++ (50% ≤ cytotoxicity < 85%) | ++ (50% ≤ cytotoxicity < 85%) | 5 to 10 µM | 5 to 10 µM | 1 to 5 µM | +++ (cytotoxicity ≥ 85%) | 1 to 5 µM | ++ (50% ≤ cytotoxicity < 85%) | 0.01 to 0.1 µM | ++ (50% ≤ cytotoxicity < 85%) | 0.1 to 0.5 µM | +++ (angiogenesis inhibition ≥ 80%) |
| Cc1ccc(-n2nc(C(C)(C)C)cc2NC(=O)Nc2ccc(Oc3ccnc4c3OCC(=O)N4)cc2C(F)(F)F)cc1 [Compound 011, 1-[5-tert-butyl-2-(p-tolyl)pyrazol-3-yl]-3-[4-[(3-oxo-4H-pyrido[3,2-b][1,4]oxazin-8-yl)oxy]-2-(trifluoromethyl)phenyl]urea] | + (20 % ≤ cytotoxicity < 50%) | + (20 % ≤ cytotoxicity < 50%) | 5 to 10 µM | ≥ 10 µM | 1 to 5 µM | +++ (cytotoxicity ≥ 85%) | 1 to 5 µM | ++ (50% ≤ cytotoxicity < 85%) | 0.01 to 0.1 µM | ++ (50% ≤ cytotoxicity < 85%) | 0.1 to 0.5 µM | +++ (angiogenesis inhibition ≥ 80%) |
| CSc1cc(Oc2ccnc3c2OCC(=O)N3)ccc1NC(=O)Nc1cc(C(C)(C)C)nn1-c1cccc(F)c1 [Compound 012, 1-[5-tert-butyl-2-(3-fluorophenyl)pyrazol-3-yl]-3-[2-methylsulfanyl-4-[(3-oxo-4H-pyrido[3,2-b][1,4]oxazin-8-yl)oxy]phenyl]urea] | ++ (50% ≤ cytotoxicity < 85%) | ++ (50% ≤ cytotoxicity < 85%) | 1 to 5 µM | 5 to 10 µM | 1 to 5 µM | +++ (cytotoxicity ≥ 85%) | 1 to 5 µM | ++ (50% ≤ cytotoxicity < 85%) | 0.001 to 0.01 µM | ++ (50% ≤ cytotoxicity < 85%) | < 0.1 µM | +++ (angiogenesis inhibition ≥ 80%) |
